Reference: patent publication US20110251238A1, “PPAR AGONIST COMPOSITIONS AND METHODS OF USE” (BIOPHARMED, priority 2008, published 2011)

Tests used:
[1] = system: KB3 (epitheloid lung cancer) cell lines; assay: Cell growth inhibition (cytotoxicity), MTS assay, KB3 cell line; assay type: cell-based
Procedure: Cell growth inhibition was determined by the MTS assay; the number of viable cells were proportional to the extent of formazan production in the presence or absence of drugs. […]

[2] = system: HT-22, an immortalized mouse hippocampal cell line; assay: Neuroprotection of HT-22 cells against toxic insults (calcein viability assay); assay type: cell-based
Procedure: It is known (P. Aoun, 2003 Eur. J. Pharm. 472:65-71) that Peroxisome proliferator-activated receptors (PPARs) are involved in regulating many metabolic and inflammatory processes. The present invention explores the role of PPAR ligands in protecting neuronal cultures from toxic insults. For that purpose, the new PPAR agonists described in Example 1 were screened for their potential role as neuroprotective compounds. Experiments were performed using HT-22, an immortalized mouse hippocampal cell line, and SK-N-SH, a human neuroblastoma cell line. HT-22 was selected because it expresses PPARγ receptors. Cell viability against glutamate, hydrogen peroxide (H2O2), and serum deprivation insults was determined using a calcein assay. […] Additionally, compounds were protective even when administered simultaneously with glutamate, or for up to 8 h postglutamate insult.
HT-22, an immortalized mouse hippocampal cell line, and SK-N-SH, a human neuroblastoma cell line, were used. HT-22 cells were obtained from David Schubert (Salk Institute, San Diego, Calif.). The HT-22 line was originally selected from HT-4 cells based on glutamate sensitivity. SK-N-SH cells were obtained from ATCC (Manassas, Va.). HT-22 and SK-N-SH cells were grown to confluency in Dulbecco's modified essential medium (DMEM) and RPMI-1640 media, respectively, and supplemented with 10% charcoal/dextran-treated fetal bovine serum (FBS) and […] gentamicin at 37° C. under 95% air/5% CO2. HT-22 cells were plated at a density of 50,000 cells/ml (5000 cells/well), and SK-N-SH cells were plated at a density of 120,000-150,000 cells/ml (12,000-15,000 cells/well) in 96-well plates. In most studies, wells were pretreated with PPAR ligands over a wide dose range at various times prior to being subjected to either glutamate, hydrogen peroxide, or serum deprivation insults. In some studies, the insults were applied prior to the addition of the PPAR ligand.
The following analogues were tested on the HT22 cell line for their neuroprotective effect against glutamate insult and for their anti-inflammatory activity on relevant, models including HT22 cell line.

## Oc1ccc(CN(Cc2ccc(C(F)(F)F)cc2)Cc2ccc(O)c3ncccc23)c2cccnc12 [BPM18,708, 5,5′-(4-(trifluoromethyl)benzylazanediyl)bis(methylene)diquinolin-8-ol]
[1]; KB3, Table 3A, MTS assay, triplicate, read-out: KB3 IC50
  IC50: 1 nM
[1]; KB3 cell line, structure-cytotoxicity discussion
  cytotoxic activity in words: most active analogue
[2]
  neuroprotection from H2O2 insult: dose-dependent neuroprotection
  neuroprotection from glutamate insult: dose-dependent neuroprotection
